Source: patent publication US5712129A, “Rapamycin derivative with antimicrobial, anticancer and immunomodulation activity” (SmithKline Beecham p. l. c., priority 1993, dated 1998)
Where two headings read alike, the source gives them in different places.

Test system: Spleen cells
Assay: Mitogenesis assay for immunosuppressive activity (concanavalin A stimulated spleen cells, 3H-thymidine)
Type: cell-based, BDF1 female mice
Conditions: Mus musculus, read-out: Mitogenesis (IC50)
Experimental: Spleen cells for BDF1 female mice were established in RPMI with 10% fetal calf serum at 5×10^6 /mL. One hundred […] of this suspension (5×10^5 cells) were dispensed into 96-well round-bottomed microtiter plates (Linbro, Flow Laboratories). Concanavalin A (5 μg/ml) was added as the mitogenic stimulus, and the final volume in the microtiter wells was adjusted to 200 μL with RPMI. Cell cultures were incubated for 72 hours at 37° C. in a 5% CO2 atmosphere and pulsed with 0.5 μCi ^3 H-thymidine (specific activity […]) for the last 18 hours of the 72 hours culture. The cells were harvested on an automated multiple sample harvester and cell-associated radioactivity counted in a Beckman liquid scintillation counter. The results were expressed as the mean values derived from quadruplicate measurements. Cell viability was determined by trypan blue exclusion after 72 hours of incubation. Compounds to be tested were added to the microtiter plates at the appropriate dilutions prior to the addition of cells.

| SMILES | IC50 (Concanavalin A 5 μg/ml, 72 hours at 37° C., 3H-thymidine pulse last 18 hours) [nM] | IC50 [nM] |
| --- | --- | --- |
| COC1CC2CCC(C)C(O)(O2)C(=O)C(=O)N2CCCCC2C(=O)OC(C(C)CC2CCC(O)C(O)C2)CC(=O)C(C)C=C(C)C(O)C(OC)C(=O)C(C)CC(C)C=CC=CC=C1C (centres unmarked) [42-O-demethylrapamycin] | 3 |  |
| CO[C@H]1C[C@@H]2CC[C@@H](C)[C@@](O)(O2)C(=O)C(=O)N2CCCC[C@H]2C(=O)O[C@H]([C@H](C)C[C@@H]2CC[C@@H](O)[C@H](OC)C2)CC(=O)[C@H](C)/C=C(\C)[C@@H](O)[C@@H](OC)C(=O)[C@H](C)C[C@H](C)/C=C/C=C/C=C/1C [rapamycin] |  | 1 ± 1 |
